# Laboratory results reported in patent publication US7576222B2, “Alkynyl-containing tryptophan derivative inhibitors of TACE/matrix metalloproteinase” (priority 2004, dated 2009).
# Molecular target: T1, catalytic domain of the recombinant TACE protein (Homo sapiens, UniProt P78536)
# T1 construct: The catalytic domain of the recombinant TACE protein was expressed and purified; made in house
# Assay: TACE FRET assay using TACE cat
# Format: biochemical
# Conditions: not given
# Experimental: TACE FRET Assay Using TACE Cat
# “K” is the IC50. Generally, “n” and “B” are floated, noting that n (Hill slope) should be close to 1 and B (background offset) to 0.
# Pro-TNF-α substrate peptide Abz-[…]-Dpa (AnaSpec, San Jose, Calif., WARC-1) was prepared as a 2 mM stock solution in the TACE assay buffer (50 mM Tris-HCl, pH 7.4, 25 mM NaCl, 4% Glycerol, 0.005% Brij 35). The catalytic domain of the recombinant TACE protein was expressed and purified. The TACE protein (1 ug/ml) was pretreated with the inhibitors at various concentrations for 10 min. at room temperature. The reaction was initiated by the addition of the substrate peptide. […] The initial rate (slope) of the reaction was determined using a fluorescence plate reader (Molecular Devices, Spectra Max Gemini XS).
# T1 sequence (P78536 223-474 limits assumed): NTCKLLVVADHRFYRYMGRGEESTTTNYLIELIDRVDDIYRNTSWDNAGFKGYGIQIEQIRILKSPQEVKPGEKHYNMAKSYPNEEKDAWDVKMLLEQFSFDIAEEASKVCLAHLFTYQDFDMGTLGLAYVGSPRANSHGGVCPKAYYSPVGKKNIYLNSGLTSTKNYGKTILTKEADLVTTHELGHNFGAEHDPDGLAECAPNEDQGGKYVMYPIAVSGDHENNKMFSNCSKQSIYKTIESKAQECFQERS
row,Compound,IC50 [nM]
1,"CC#CCOc1ccc(S(=O)(=O)N[C@@H](Cc2c(C)n(Cc3ccc(C#N)cc3)c3ccc(OC)cc23)C(=O)O)cc1 [Example 205, N-{[4-(but-2-ynyloxy)phenyl]sulfonyl}-1-(4-cyanobenzyl)-5-methoxy-2-methyltryptophan]",470
2,"CC#CCOc1ccc(S(=O)(=O)N[C@@H](Cc2cn(CC3CCCCC3)c3ccc(OC)cc23)C(=O)O)cc1 [Example 70, N-{[4-(but-2-ynyloxy)phenyl]sulfonyl}-1-(cyclohexylmethyl)-5-methoxytryptophan]",1870

# Same assay, conditions: TACE FRET assay, Conc. 1 μM
row,Compound,TACE Inhibition (%)
1,CC#CCOc1ccc(S(=O)(=O)N[C@@H](Cc2cn(Cc3ccccc3OC)c3ccc(C(=O)O)cc23)C(=O)O)cc1 [Example 107],7.34

# Same assay, conditions: TACE FRET assay, catalytic domain of recombinant TACE; read-out: TACE IC50
row,Compound,IC50 [nM]
1,"CC#CCOc1ccc(S(=O)(=O)N[C@@H](Cc2c[nH]c3ccccc23)C(=O)O)cc1 [Example 2, N-{[4-(but-2-ynyloxy)phenyl]sulfonyl}-L-tryptophan]",8200

# Same assay, conditions: read-out: TACE Inhibition (%)
row,Compound,inhibition at 1 µM [%]
1,"CC#CCOc1ccc(S(=O)(=O)N[C@@H](Cc2c(C)n(Cc3cccc(OC)c3)c3ccccc23)C(=O)O)cc1 [Example 147, N-{[4-(but-2-ynyloxy)phenyl]sulfonyl}-1-(3-methoxybenzyl)-2-methyltryptophan]",35.6
2,"CC#CCOc1ccc(S(=O)(=O)N[C@@H](Cc2c(C)n(Cc3cc(OC)cc(OC)c3)c3ccc(OC)cc23)C(=O)O)cc1 [Example 192, N-{[4-(but-2-ynyloxy)phenyl]sulfonyl}-1-(3,5-dimethoxybenzyl)-5-methoxy-2-methyltryptophan]",80
3,"CC#CCOc1ccc(S(=O)(=O)N[C@@H](Cc2c(C)n(Cc3ccc(OC(F)(F)F)cc3)c3ccc(Cl)cc23)C(=O)O)cc1 [Example 94, N-{[4-(but-2-ynyloxy)phenyl]sulfonyl}-5-chloro-2-methyl-1-[4-(trifluoromethoxy)benzyl]tryptophan]",47.4
4,"CC#CCOc1ccc(S(=O)(=O)N[C@@H](Cc2c(C)n(Cc3ccccc3OC)c3ccccc23)C(=O)O)cc1 [Example 146, N-{[4-(but-2-ynyloxy)phenyl]sulfonyl}-1-(2-methoxybenzyl)-2-methyltryptophan]",35.9
5,"CC#CCOc1ccc(S(=O)(=O)N[C@@H](Cc2c(C)n(Cc3ccc(OC)cc3)c3ccccc23)C(=O)O)cc1 [Example 148, N-{[4-(but-2-ynyloxy)phenyl]sulfonyl}-1-(4-methoxybenzyl)-2-methyltryptophan]",44.1
6,"CC#CCOc1ccc(S(=O)(=O)N[C@@H](Cc2cn(Cc3ccc(C(F)(F)F)cc3)c3ccc(C(=O)O)cc23)C(=O)O)cc1 [Example 113, N-{[4-(but-2-ynyloxy)phenyl]sulfonyl}-5-carboxy-1-[4-(trifluoromethyl)benzyl]tryptophan]",-2.04
7,"CC#CCOc1ccc(S(=O)(=O)N[C@@H](Cc2c(C)n(C)c3ccc(OC)cc23)C(=O)O)cc1 [Example 208, N-{[4-(but-2-ynyloxy)phenyl]sulfonyl}-5-methoxy-1,2-dimethyltryptophan]",61.8
8,"CC#CCOc1ccc(S(=O)(=O)N[C@@H](Cc2c(C)n(Cc3ccccc3C#N)c3ccccc23)C(=O)O)cc1 [Example 158, N-{[4-(but-2-ynyloxy)phenyl]sulfonyl}-1-(2-cyanobenzyl)-2-methyltryptophan]",72.1
9,"CC#CCOc1ccc(S(=O)(=O)N[C@@H](Cc2cn(Cc3ccc(OC)cc3)c3ccc(C#N)cc23)C(=O)O)cc1 [Example 139, N-{[4-(but-2-ynyloxy)phenyl]sulfonyl}-5-cyano-1-(4-methoxybenzyl)tryptophan]",25.1
10,"CC#CCOc1ccc(S(=O)(=O)N[C@@H](Cc2c(C)n(CC(C)C)c3ccc(OC)cc23)C(=O)O)cc1 [Example 210, N-{[4-(but-2-ynyloxy)phenyl]sulfonyl}-1-isobutyl-5-methoxy-2-methyltryptophan]",66.6
11,"CC#CCOc1ccc(S(=O)(=O)N[C@@H](Cc2cn(Cc3ccc(C(=O)O)cc3)c3ccc(C(=O)O)cc23)C(=O)O)cc1 [Example 126, N-{[4-(but-2-ynyloxy)phenyl]sulfonyl}-5-carboxy-1-(4-carboxybenzyl)tryptophan]",8.36
12,"CC#CCOc1ccc(S(=O)(=O)N[C@@H](Cc2cn(Cc3ccccc3C#N)c3ccc(C(=O)O)cc23)C(=O)O)cc1 [Example 121, N-{[4-(but-2-ynyloxy)phenyl]sulfonyl}-5-carboxy-1-(2-cyanobenzyl)tryptophan]",14.8
13,"CC#CCOc1ccc(S(=O)(=O)N[C@@H](Cc2cn(Cc3ccc(OC(F)(F)F)cc3)c3ccc(Cl)cc23)C(=O)O)cc1 [Example 78, N-{[4-(but-2-ynyloxy)phenyl]sulfonyl}-5-chloro-1-[4-(trifluoromethoxy)benzyl]tryptophan]",7.39
14,"CC#CCOc1ccc(S(=O)(=O)N[C@@H](Cc2c(C)n(Cc3cccc(C(F)(F)F)c3)c3ccccc23)C(=O)O)cc1 [Example 149, N-{[4-(but-2-ynyloxy)phenyl]sulfonyl}-2-methyl-1-[3-(trifluoromethyl)benzyl]tryptophan]",50.5
15,"CC#CCOc1ccc(S(=O)(=O)N[C@@H](Cc2c(C)n(Cc3ccccc3)c3ccc(Cl)cc23)C(=O)O)cc1 [Example 88, 1-benzyl-N-{[4-(but-2-ynyloxy)phenyl]sulfonyl}-5-chloro-2-methyltryptophan]",62.8
16,"CC#CCOc1ccc(S(=O)(=O)N[C@@H](Cc2cn(Cc3cccc(F)c3)c3ccc(OC)cc23)C(=O)O)cc1 [Example 59, N-{[4-(but-2-ynyloxy)phenyl]sulfonyl}-1-(3-fluorobenzyl)-5-methoxytryptophan]",44.4
17,"CC#CCOc1ccc(S(=O)(=O)N[C@@H](Cc2cn(Cc3ccc(C)cc3)c3ccc(C#N)cc23)C(=O)O)cc1 [Example 136, N-{[4-(but-2-ynyloxy)phenyl]sulfonyl}-5-cyano-1-(4-methylbenzyl)tryptophan]",57.8
18,"CC#CCOc1ccc(S(=O)(=O)N[C@@H](Cc2c(C)n(Cc3ccc(C(C)C)cc3)c3ccc(Cl)cc23)C(=O)O)cc1 [Example 97, N-{[4-(but-2-ynyloxy)phenyl]sulfonyl}-5-chloro-1-(4-isopropylbenzyl)-2-methyltryptophan]",21.9
19,"CC#CCOc1ccc(S(=O)(=O)N[C@H](Cc2cn(Cc3ccc(OCC)cc3)c3ccccc23)C(=O)O)cc1 [Example 215, N-{[4-(but-2-ynyloxy)phenyl]sulfonyl}-1-(4-ethoxybenzyl)-D-tryptophan]",69.5
20,"CC#CCOc1ccc(S(=O)(=O)N[C@@H](Cc2cn(Cc3ccc(C(C)C)cc3)c3ccc(Cl)cc23)C(=O)O)cc1 [Example 82, N-{[4-(but-2-ynyloxy)phenyl]sulfonyl}-5-chloro-1-(4-isopropylbenzyl)tryptophan]",5.26
21,"CC#CCOc1ccc(S(=O)(=O)N[C@@H](Cc2c(C)n(CC3CCCCC3)c3ccc(Cl)cc23)C(=O)O)cc1 [Example 102, N-{[4-(but-2-ynyloxy)phenyl]sulfonyl}-5-chloro-1-(cyclohexylmethyl)-2-methyltryptophan]",56.9
22,"CC#CCOc1ccc(S(=O)(=O)N[C@@H](Cc2cn(Cc3cccc(C)c3)c3ccc(Cl)cc23)C(=O)O)cc1 [Example 73, N-{[4-(but-2-ynyloxy)phenyl]sulfonyl}-5-chloro-1-(3-methylbenzyl)tryptophan]",28
23,"CC#CCOc1ccc(S(=O)(=O)N[C@@H](Cc2c(C)n(Cc3ccc(Cl)cc3)c3ccccc23)C(=O)O)cc1 [Example 156, N-{[4-(but-2-ynyloxy)phenyl]sulfonyl}-1-(4-chlorobenzyl)-2-methyltryptophan]",43.3
24,"CC#CCOc1ccc(S(=O)(=O)N[C@@H](Cc2cn(Cc3ccc(Cl)cc3)c3ccc(OC)cc23)C(=O)O)cc1 [Example 62, N-{[4-(but-2-ynyloxy)phenyl]sulfonyl}-1-(4-chlorobenzyl)-5-methoxytryptophan]",39.3
25,"CC#CCOc1ccc(S(=O)(=O)N[C@@H](Cc2cn(Cc3ccc4c(c3)OCO4)c3ccc(C(=O)O)cc23)C(=O)O)cc1 [Example 124, 1-(1,3-benzodioxol-5-ylmethyl)-N-{[4-(but-2-ynyloxy)phenyl]sulfonyl}-5-carboxytryptophan]",10.2
26,"CC#CCOc1ccc(S(=O)(=O)N[C@H](Cc2cn(Cc3ccc(O)cc3)c3ccccc23)C(=O)O)cc1 [Example 214, N-{[4-(but-2-ynyloxy)phenyl]sulfonyl}-1-(4-hydroxybenzyl)-D-tryptophan]",8.77
27,"CC#CCOc1ccc(S(=O)(=O)N[C@@H](Cc2cn(Cc3ccc(F)cc3)c3ccc(C#N)cc23)C(=O)O)cc1 [Example 141, N-{[4-(but-2-ynyloxy)phenyl]sulfonyl}-5-cyano-1-(4-fluorobenzyl)tryptophan]",29.6
28,"CC#CCOc1ccc(S(=O)(=O)N[C@@H](Cc2cn(Cc3ccccc3C(F)(F)F)c3ccc(C(=O)O)cc23)C(=O)O)cc1 [Example 111, N-{[4-(but-2-ynyloxy)phenyl]sulfonyl}-5-carboxy-1-[2(trifluoromethyl)benzyl]tryptophan]",10.7
29,"CC#CCOc1ccc(S(=O)(=O)N[C@@H](Cc2cn(Cc3ccc(C#N)cc3)c3ccc(C(=O)O)cc23)C(=O)O)cc1 [Example 123, N-{[4-(but-2-ynyloxy)phenyl]sulfonyl}-5-carboxy-1-(4-cyanobenzyl)tryptophan]",-2.56
30,"CC#CCOc1ccc(S(=O)(=O)N[C@@H](Cc2cn(Cc3cccc(F)c3)c3ccc(C(=O)O)cc23)C(=O)O)cc1 [Example 116, N-{[4-(but-2-ynyloxy)phenyl]sulfonyl}-5-carboxy-1-(3-fluorobenzyl)tryptophan]",9.72
